One series addresses eDHFR-HA-GFP (Escherichia coli, UniProt P0ABQ4). On the procedure:
FIG. 6 depicts degradation of eDHFR-HA in cell lysates and degradation of eDHFR fusion proteins in HeLa cells. (A) Degradation of eDHFR in HeLa cells lysates; (B) quantification of panel (A); (C) Global protein stability (GPS) assay. Cells co-express red fluorescent protein (RFP) and DHFR-HA-GFP from a bicistronic construct. Red and green fluorescence was measured by flow cytometry.
Protein degradation in whole cells was also assessed. eDHFR-HA-GFP was co-expressed with Discosoma sp. red fluorescent protein (RFP) in a bicistronic construct under control of a CMV promoter, with DHFR-HA-GFP translation occurring at the internal ribosome binding site. Thus a single mRNA is responsible for the production of both RFP and DHFR-HA-GFP, so that similar ratios of both proteins should be produced in all transfected cells. Changes in the relative intensities of red and green fluorescence are measured by flow cytometry, providing a facile and quantitative measure of the degradation of DHFR-HA-GFP in living cells and real time.
Cells were grown to 90% confluence in Dulbecco's Modified Minimal Essential Medium supplemented with 10% fetal bovine serum, 1×L-glutamine with no antibiotic in a 6 well plate. At this point the cells were serum starved, and then transfected using […] plasmid (expression driven by the cytomegalovirus promoter; gene coding for enhanced green fluorescent protein fused to the C-terminus of E. coli dihydrofolate reductase): 2 μL Transfectin™ (Biorad) per well. 48 hours after transfection, media was once again aspirated, and fresh serum free media was added. Cycloheximide (final concentration 100 μg/mL) was then added to the cells and after 5 minutes, 30 μM inhibitor was added. At each time point (45 minutes), media was aspirated, cells were trypsinized, centrifuged and washed three times with phosphate buffered saline. Cell pellets were flash frozen in dry ice, and then stored indefinitely at −80° C. The cells were thawed on ice, and then resuspended in lysis buffer (150 mM sucrose, 200 mM sodium phosphate, 43 mM MgCl2, pH 7.8, 0.1% triton X-100). Cells were lysed by two freeze/thaw cycles (−80° C. for 5 minutes, then 4° C. for 10 minutes). Lysate concentrations were normalized by dilution with lysis buffer such that they gave the same A595 when diluted into Bradford assay dye (Biorad).

Another series deals with HeLa cells. Description: Cytotoxicity and apoptosis (trypan blue staining, PARP cleavage). The series is classed as cell-based. The conditions noted are these: concentrations up to 135 μM.
In series [1] the target is T1, Escherichia coli dihydrofolate reductase (Escherichia coli, UniProt P0ABQ4).
T1 construct: (His)6 (N); made in house; host or cells: Escherichia coli (pET28a vector)
As to the kind of experiment: Degradation of pre-inhibited eDHFR in cell lysates (Western blot). Format: biochemical. On the technique in general: A western blot detects proteins with antibodies after separation by electrophoresis.

The next series has as its target T2, eDHFR-HA (Escherichia coli, UniProt P0ABQ4).
T2 construct: (His)6 (N); made in house; host or cells: Escherichia coli (pET28a vector)
Description: Degradation by purified 20S proteasome / immunoproteasome. Format: biochemical. As to the method: The protein was pre-inhibited with 1 mM inhibitor by incubation at 30° C. for 20 minutes. This mixture was added to the assay mixture (in 50 mM Hepes, pH 8.0, 250 mM NaCl, 1 mM DTT) such that the final concentration of protein was 90 nM. The concentration of proteasome was 6 nM. The temperature of assay was 37° C. Total assay volume was 55 μL. 15 μL aliquots were extracted at various time points and immediately placed into 6 μL of 5× loading buffer and boiled for 5 minutes. These were stored at −80° C. after flash freezing on dry ice and thawed by boiling for 2 minutes. The data was analyzed by Western blot as described in Example 2.

The next series concerns the target eDHFR (Escherichia coli, UniProt P0ABQ4). The series is classed as binding. The conditions noted are these: data not shown.
Series [2] deals with eDHFR-KRas D12 fusion protein. Format: cell-based. The conditions noted are these: NIH3T3 cells, 16 μM. As to the method:
FIG. 3 depicts the degradation of eDHFR-KRas D12 fusion protein. MSCV retrovirus was used to insert eDHFR-KRas D12 fusion gene into NIH3T3 cells. These cells were plated in a 48-well plate and treated with 16 μM of either trimethoprim or trimethoprim-Boc3Arg, and then harvested at the times indicated. eDHFR-Ras contained a FLAG tag at the amino terminus and was measured through western blot with anti-FLAG antibody. Tubulin was used as a loading control.

Like-named read-outs stand apart in the source and are kept apart here.

With `COc1cc(Cc2cnc(N)nc2N)cc(OC)c1OCC(=O)NCCCCCCNC(=O)C(CCCNC(=NC(=O)OC(C)(C)C)NC(=O)OC(C)(C)C)NC(=O)OC(C)(C)C` (stereo not drawn) [TMP-Boc3Arg, N-(6-(2-(4-((2,4-diaminopyrimidin-5-yl)methyl)-2,6-dimethoxyphenoxy)acetamido)hexyl)-5-(2,3-di-t-butoxycarbonylguanidino)-2-(t-butoxycarbonylamino)pentanamide], the “decrease of eDHFR-HA-GFP” value on eDHFR-HA-GFP (80 μM, 5 hours, GPS assay, anti-HA and anti-GFP blotting) stood at 40%. Also, on eDHFR-HA-GFP (GPS assay, transfected HeLa cells, flow cytometry), the “Change in GFP:RFP ratio as function of time” value is given as “time-dependent decrease”. Besides, the Cell permeability result at eDHFR-HA-GFP (inferred from whole-cell degradation) is on record as “cell permeable”. In addition, the “Degradation of eDHFR-HA-GFP in whole cells” value at eDHFR-HA-GFP (whole cell assays) was “promotes the degradation”. Also, the “Cytotoxicity / induction of apoptosis” value in the series with HeLa cells was “did not display cytotoxicity or induce apoptosis”. In addition, the “Degradation of target protein (eDHFR fused to GFP)” value in series [1] (FIG. 6, noncovalent ligand) is “induced the degradation”. The “Degradation of eDHFR in cell lysate assays” value in series [1] (cell lysate) is “promotes the degradation”. The “Degradation using purified immune proteasome” value at eDHFR-HA (20S immunoproteasome) is recorded as “promotes the degradation”. In addition, the “Degradation using purified 20S proteasome” value on eDHFR-HA (purified 20S proteasome, no ATP added) is given as “promotes the degradation”. For the same compound, the “increase of eDHFR melting point / stability (relative to TMP)” value on eDHFR is “smaller increase”. Besides, the “Degradation of K-Ras-eDHFR fusion protein” value in series [2] was “can induce the degradation”; in series [2] (listed as trimethoprim-tag), “is degraded”.
